According to patent publication EP3650451A1, “COMPOUNDS AND THEIR USES AS FLUORESCENT PROBES” (Consejo Superior de Investigaciones Cientificas, priority 2017, dated 2019):

Columns and labels:
[1] = Stability in water: time evolution in D2O followed by 1H NMR (hydrolysis); format: physicochemical; details: 15 mM solution in D2O at 25 °C, read-out: t1/2 (hydrolysis) (converted)
Experimental: One of the critical factors that conditions the viability and applicability of functional dyes 3 and 4 as fluorescent mitochondrial probes is their stability in water, since these compounds contain two potentially labile B-O bonds linking the fluorophore with the carnitine substituent. This stability was determined analyzing the time evolution of 3 and 4 in a 15 mM solution in D2O at 25 °C using ^1H NMR. This technique makes it possible not only to define their stability, but also to identify the possible degradation products (Diagram 2). Both probes are hydrolyzed, generating free carnitine and the corresponding 4,4-dihydroxy-BODIPY derivatives 5 and 6. [drawing 8]
Compound 3 is quickly hydrolyzed (t1/2 = 10 min); however, the greater substitution of the tetramethylated derivative in 4 gives it greater stability (t1/2 = 6 h), which promotes its use as a fluorescent marker in live cells. Contrary to what might be believed, the generation of free carnitine and of the corresponding BODIPY derivatives 5 and 6 at physiological pH is, indeed, an advantage for its application in cell labels. Thus, (R)-carnitine is incorporated into the mitochondrial metabolism, while the boron of the hydrolyzed BODIPY can covalently bond to poly-hydroxilated molecules (for example, saccharides and glycoproteins), generating cyclic boronic esters. […]

[2] = Photophysical characterization: absorption and fluorescence spectra; format: physicochemical; details: for λfl: Fluorescence peak wavelength: excitation at 490 nm; for φf: Quantum yield: reference PM567 in ethanol
Experimental: The photophysical characterization of probes 3 and 4 was carried out analyzing the corresponding absorption and fluorescence spectra in the UV-visible region of the spectrum.
Its photophysical behavior is dependent on the degree of substitution of the BODIPY, since the alkylation of the chromatophore induces sufficient steric hindrance to reduce the free rotation of the 8-mesityl group, a process that entails a significant reduction in fluorescence efficiency. Thus, probe 4 in water stands out for having a high molar absorption coefficient (3.8 × 10^4 M^-1 cm^-1 at 499 nm) and a very efficient fluorescence emission at 511 nm, with a quantum yield of up to 80%.

CC1=CC(C)=[N+]2C1=C(c1c(C)cc(C)cc1C)c1c(C)cc(C)n1[B-]21OC(=O)C[C@H](C[N+](C)(C)C)O1 (stereo partly shown) [Compound 4]
half-life at 15000 µM [1]: 360 min
photostability [2]: high photostability
kfl: Radiative decay constant ([2]; Acetone): 1.27 10^8s^- 1
knr: Non-Radiative decay constant ([2]; Acetone): 0.16 10^8s^- 1
Δv: Stokes shift ([2]; Acetone): 504 cm⁻¹
εmax: Molar extinction coefficient at the absorption peak ([2]; Acetone): 5.1 × 10^4 (M^-1 cm^- 1)
λab: Absorption peak wavelength ([2]; Acetone): 501 nm
τ: Fluorescence lifetime ([2]; Acetone): 7.00 ns
λfl: Fluorescence peak wavelength ([2]; Acetone): 514 nm
φf: Quantum yield ([2]; Acetone): 0.89
kfl: Radiative decay constant ([2]; Acetonitrile): 1.21 10^8s^- 1
knr: Non-Radiative decay constant ([2]; Acetonitrile): 0.20 10^8s^- 1
Δv: Stokes shift ([2]; Acetonitrile): 469 cm⁻¹
εmax: Molar extinction coefficient at the absorption peak ([2]; Acetonitrile): 4.9 × 10^4 (M^-1 cm^- 1)
λab: Absorption peak wavelength ([2]; Acetonitrile): 500 nm
τ: Fluorescence lifetime ([2]; Acetonitrile): 7.12 ns
λfl: Fluorescence peak wavelength ([2]; Acetonitrile): 512 nm
φf: Quantum yield ([2]; Acetonitrile): 0.86
kfl: Radiative decay constant ([2]; Chloroform): 1.36 10^8s^- 1
knr: Non-Radiative decay constant ([2]; Chloroform): 0.22 10^8s^- 1
Δv: Stokes shift ([2]; Chloroform): 424 cm⁻¹
εmax: Molar extinction coefficient at the absorption peak ([2]; Chloroform): 4.8 × 10^4 (M^-1 cm^- 1)
λab: Absorption peak wavelength ([2]; Chloroform): 504 nm
τ: Fluorescence lifetime ([2]; Chloroform): 6.32 ns
λfl: Fluorescence peak wavelength ([2]; Chloroform): 514 nm
φf: Quantum yield ([2]; Chloroform): 0.86
kfl: Radiative decay constant ([2]; Ethanol): 1.22 10^8s^- 1
knr: Non-Radiative decay constant ([2]; Ethanol): 0.18 10^8s^- 1
Δv: Stokes shift ([2]; Ethanol): 427 cm⁻¹
εmax: Molar extinction coefficient at the absorption peak ([2]; Ethanol): 5.1 × 10^4 (M^-1 cm^- 1)
λab: Absorption peak wavelength ([2]; Ethanol): 502 nm
τ: Fluorescence lifetime ([2]; Ethanol): 7.10 ns
λfl: Fluorescence peak wavelength ([2]; Ethanol): 513 nm
φf: Quantum yield ([2]; Ethanol): 0.87
kfl: Radiative decay constant ([2]; Water): 1.14 10^8s^- 1
knr: Non-Radiative decay constant ([2]; Water): 0.23 10^8s^- 1
Δv: Stokes shift ([2]; Water): 470 cm⁻¹
εmax: Molar extinction coefficient at the absorption peak ([2]; Water): 3.8 × 10^4 (M^-1 cm^- 1)
λab: Absorption peak wavelength ([2]; Water): 499 nm
τ: Fluorescence lifetime ([2]; Water): 7.30 ns
λfl: Fluorescence peak wavelength ([2]; Water): 511 nm
φf: Quantum yield ([2]; Water): 0.83
tendency towards H- or J- type aggregation ([2]; concentrations as high as 10^-4 M): not exhibit any tendency towards H- or J- type aggregation
fluorescence emission (wavelength) ([2]; in water): 511 nm
quantum yield ([2]; in water): up to 80%
molar absorption coefficient ([2]; in water, at 499 nm): 38000 M⁻¹ cm⁻¹
